Test results taken from ChEMBL document CHEMBL1777719, “Norcantharidin analogues with nematocidal activity in Haemonchus contortus” (Bioorg Med Chem Lett, 2011).
Activity calls are given as the source filed them. The rule behind the calls is not given here.

Legend:
[1] = Cytotoxicity against human DU145 cells after 72 hrs by MTT assay; type: cell-based, DU-145
[2] = Cytotoxicity against human SW480 cells after 72 hrs by MTT assay; type: cell-based
[3] = Cytotoxicity against human HT-29 cells after 72 hrs by MTT assay; type: cell-based
[4] = Cytotoxicity against human BE(2)-C cells after 72 hrs by MTT assay; type: cell-based
[5] = Cytotoxicity against human SJ-G2 cells after 72 hrs by MTT assay; type: cell-based
[6] = Cytotoxicity against human MCF7 cells after 72 hrs by MTT assay; type: cell-based
[7] = system: Haemonchus contortus; assay: Nematocidal activity against Haemonchus contortus Haecon 5 strain isolated from helminth-free Merino weaner sheep at 12.5 to 100 uM after 6 days by larval development assay; type: functional, organism-based
[8] = Cytotoxicity against human A2780 cells after 72 hrs by MTT assay; type: cell-based
[9] = Cytotoxicity against human A431 cells after 72 hrs by MTT assay; type: cell-based, A-431
[10] = Cytotoxicity against human H460 cells after 72 hrs by MTT assay; type: cell-based; settings: NCI-H460 cells
[11] = system: Haemonchus contortus; assay: Nematocidal activity against Haemonchus contortus Haecon 5 strain isolated from helminth-free Merino weaner sheep after 6 days by larval development assay; type: functional; settings: for LC50: Haemonchus contortus, Haecon 5 strain, 144 h, read-out: LD50 (the source's name)

SMILES | GI50 at 72 h [1] | GI50 at 72 h [2] | GI50 at 72 h [3] | GI50 at 72 h [4] | GI50 at 72 h [5] | GI50 at 72 h [6] | inhibition [7] | GI50 at 72 h [8] | GI50 at 72 h [9] | GI50 at 72 h [10] | LD99 [11] | LC50 [11]
CCCCCCCCNC(=O)C1C(C(=O)O)[C@@H]2CC[C@H]1O2 (some centres not stated) | 10 µM | 10 µM | 10 µM | 10 µM | 10 µM | 10 µM | inactive | 10 µM | 10 µM | 10 µM |  | 
CCCCCCCCCCN1C(=O)[C@@H]2[C@H](C1=O)[C@H]1CC[C@@H]2O1 |  |  |  |  |  |  |  |  |  |  | 90 µM | 30 µM
N#C/C(=C\c1ccc[nH]1)c1ccc(Cl)cc1 |  |  |  |  |  |  |  |  |  |  | 25 µM | 10 µM
N#C/C(=C\c1ccc[nH]1)c1ccccc1 |  |  |  |  |  |  |  |  |  |  | 100 µM | 6 µM
CCCNC(=O)C1C(C(=O)O)[C@@H]2CC[C@H]1O2 (some centres not stated) | 10 µM | 10 µM | 10 µM | 10 µM | 10 µM | 10 µM | inactive | 10 µM | 10 µM | 10 µM |  | 
C=CCNC(=O)C1C(C(=O)O)[C@@H]2CC[C@H]1O2 (some centres not stated) | 10 µM | 10 µM | 10 µM | 10 µM | 10 µM | 10 µM | inactive | 10 µM | 10 µM | 10 µM |  | 
C/C(=N/Nc1ccccc1)c1ccccc1NC(=O)C1C(C(=O)O)[C@@H]2CC[C@H]1O2 (some centres not stated) | 10 µM | 10 µM | 10 µM | 10 µM | 10 µM | 10 µM | inactive | 10 µM | 10 µM | 10 µM |  | 
CCCCCCCCN1C(=O)[C@@H]2[C@H](C1=O)[C@H]1CC[C@@H]2O1 |  |  |  |  |  |  |  |  |  |  | 80 µM | 40 µM
Cc1cc(C)c(NC(=O)C2C(C(=O)O)[C@@H]3CC[C@H]2O3)c(C)c1 (some centres not stated) | 10 µM | 10 µM | 10 µM | 10 µM | 10 µM | 10 µM | inactive | 10 µM | 10 µM | 10 µM |  | 
CCCCNC(=O)C1C(C(=O)O)[C@@H]2CC[C@H]1O2 (some centres not stated) | 10 µM | 10 µM | 10 µM | 10 µM | 10 µM | 10 µM | inactive | 10 µM | 10 µM | 10 µM |  | 
O=C(O)C1C(C(=O)Nc2ccc(O)cc2)[C@H]2CC[C@@H]1O2 (some centres not stated) | 10 µM | 10 µM | 10 µM | 10 µM | 10 µM | 10 µM | inactive | 10 µM | 10 µM | 10 µM |  | 
O=C(O)C1C(C(=O)Nc2ccc(Br)cc2)[C@H]2CC[C@@H]1O2 (some centres not stated) | 10 µM | 10 µM | 10 µM | 10 µM | 10 µM | 10 µM | inactive | 10 µM | 10 µM | 10 µM |  | 
O=C(O)C1C(C(=O)NCc2ccc(Cl)cc2)[C@H]2CC[C@@H]1O2 (some centres not stated) | 10 µM | 10 µM | 10 µM | 10 µM | 10 µM | 10 µM | inactive | 10 µM | 10 µM | 10 µM |  | 
O=C(O)C1C(C(=O)NCCc2ccccc2)[C@H]2CC[C@@H]1O2 (some centres not stated) | 10 µM | 10 µM | 10 µM | 10 µM | 10 µM | 10 µM | inactive | 10 µM | 10 µM | 10 µM |  | 
N#C/C(=C\c1ccc[nH]1)c1ccc(F)cc1 |  |  |  |  |  |  |  |  |  |  | 50 µM | 10 µM
N#C/C(=C\c1ccc[nH]1)c1ccc(Cl)c(Cl)c1 |  |  |  |  |  |  |  |  |  |  | 12.5 µM | 7 µM
CCCCCCCCCCNC(=O)C1C(C(=O)O)[C@@H]2CC[C@H]1O2 (some centres not stated) | 10 µM | 10 µM | 10 µM | 10 µM | 10 µM | 10 µM | inactive | 10 µM | 10 µM | 10 µM |  | 
CCc1ccccc1NC(=O)C1C(C(=O)O)[C@@H]2CC[C@H]1O2 (some centres not stated) | 10 µM | 10 µM | 10 µM | 10 µM | 10 µM | 10 µM | inactive | 10 µM | 10 µM | 10 µM |  | 
O=C(O)c1ccc(NC(=O)C2C(C(=O)O)[C@@H]3CC[C@H]2O3)cc1Cl (some centres not stated) | 10 µM | 10 µM | 10 µM | 10 µM | 10 µM | 10 µM | inactive | 10 µM | 10 µM | 10 µM |  | 
O=C(O)CCCCCCCNC(=O)C1C(C(=O)O)[C@@H]2CC[C@H]1O2 (some centres not stated) | 10 µM | 10 µM | 10 µM | 10 µM | 10 µM | 10 µM | inactive | 10 µM | 10 µM | 10 µM |  | 
O=C(O)CCCNC(=O)C1C(C(=O)O)[C@@H]2CC[C@H]1O2 (some centres not stated) | 10 µM | 10 µM | 10 µM | 10 µM | 10 µM | 10 µM | inactive | 10 µM | 10 µM | 10 µM |  | 
O=C(O)C1C(C(=O)Nc2ccccc2)[C@H]2CC[C@@H]1O2 (some centres not stated) | 10 µM | 10 µM | 10 µM | 10 µM | 10 µM | 10 µM | inactive | 10 µM | 10 µM | 10 µM |  | 
O=C(O)C1C(C(=O)NCCCc2ccccc2)[C@H]2CC[C@@H]1O2 (some centres not stated) | 10 µM | 10 µM | 10 µM | 10 µM | 10 µM | 10 µM | inactive | 10 µM | 10 µM | 10 µM |  | 
